Test results reported in ChEMBL document CHEMBL1201862, “PubChem BioAssay data set” (2004).
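The compound was tested at five concentrations on cells cultured in 96-well plates, with a 48-hour exposure period. At the GI50, growth is halved.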 Active and inactive are the calls of the source. No stated cut-off is given here; in the data, active = GI50 up to about 1.1 µM and inactive = higher.

Legend:
Experiment in all cases: NCI tumour cell line growth inhibition, 48 h
LXFL 529 = tested on: LXFL 529
XF498 = tested on: XF498
RXF 631 = tested on: RXF 631
MDA-MB-231 = tested on: MDA-MB-231
MDA-MB-435 = tested on: MDA-MB-435
MDA-N = tested on: MDA-N
PC-3 = tested on: PC-3
Hs-578T = tested on: Hs-578T
T47D = tested on: T47D

Measured: GI50

O=C1C(Cl)N(c2ccc(Cl)cc2Cl)C1c1c[nH]c2ccccc12 (centres undefined)
inactive: LXFL 529 > 100 µM | XF498 > 100 µM

CCCCCCCCCCCCCCNCC(OC)OC
inactive: LXFL 529 16.3 µM | RXF 631 15.2 µM | XF498 16.7 µM

Cn1cnc(/C=C/C#N)c1
inactive: MDA-MB-231 > 100 µM | MDA-MB-435 > 100 µM | MDA-N > 100 µM | PC-3 > 100 µM

Cc1[nH]c(=O)[nH]c(=O)c1/C=C/C(=O)NC(CO)C[S+]([O-])Cc1ccccc1 (centres undefined)
inactive: XF498 > 300 µM

Cc1cccc(Cl)c1NC(N)=S
inactive: LXFL 529 31.8 µM | RXF 631 35.9 µM

COc1cccc(C2c3cc4c(cc3OC(N3CCOCC3)C2C)OCO4)c1OC (centres undefined)
inactive: Hs-578T 4.26 µM | MDA-MB-435 10 µM | MDA-N 13.7 µM | PC-3 11.3 µM | T47D 3.2 µM

O=C(O)CN(CC(=O)O)C1CCCCC1N(CC(=O)O)CC(=O)NCCN=C=S (centres undefined)
inactive: Hs-578T > 100 µM | MDA-MB-231 > 100 µM | MDA-MB-435 > 100 µM | MDA-N > 100 µM | PC-3 > 100 µM | T47D > 100 µM

COc1cc(-c2ccc(/N=N/c3ccc4c(S(=O)(=O)O)cc(S(=O)(=O)O)c(N)c4c3O)c(OC)c2)ccc1/N=N/c1ccc2c(S(=O)(=O)O)cc(S(=O)(=O)O)c(N)c2c1O
inactive: XF498 36.1 µM

CCOC(=O)C(NC(C)=O)(Nc1ccc(F)cc1)C(F)(F)F (centres undefined)
inactive: Hs-578T > 100 µM | MDA-MB-231 > 100 µM | MDA-MB-435 3.95 µM | MDA-N 4.75 µM | PC-3 > 100 µM | T47D 23.2 µM

COCCOCCOCCC(=O)NC1CC2CCC1(C)C2(C)C (centres undefined)
inactive: Hs-578T > 100 µM | MDA-MB-231 > 100 µM | MDA-MB-435 > 100 µM | MDA-N > 100 µM | PC-3 > 100 µM

CC1(C23CC4CC(CC(C4)C2)C3)n2c(=O)n(-c3ccccc3)c(=O)n2C1(C)C12CC3CC(CC(C3)C1)C2 (centres undefined)
inactive: Hs-578T 18.8 µM | MDA-MB-231 > 100 µM | MDA-MB-435 > 100 µM | MDA-N > 100 µM | PC-3 > 100 µM | T47D > 100 µM

C=CCn1c2ccccc2c2c(C)c3cnccc3c(C)c21
inactive: XF498 12.4 µM

O=C1c2ccccc2OCC1/C=N/O (centres undefined)
inactive: XF498 > 100 µM

COc1nc(N)c(C(=O)CCl)c(=O)n1C
inactive: LXFL 529 13.6 µM | RXF 631 15.3 µM | XF498 16.4 µM

CC1=C2C(O)C(C(C)C(=O)NCC(C)C)CCC2(C)C=CC1=O (centres undefined)
inactive: XF498 > 100 µM

Cn1ccnc1Sc1ccc(/C=N/NC(=O)c2ccccc2O)cc1[N+](=O)[O-]
inactive: Hs-578T 92.5 µM | MDA-MB-231 > 100 µM | MDA-MB-435 57 µM | MDA-N 61.5 µM | PC-3 56.9 µM | T47D 80.2 µM

CCCc1nc(NC#N)nc(C(=O)NC23CC4CC(CC(C4)C2)C3)c1C
inactive: LXFL 529 > 100 µM

COc1cccc(NC(=O)N/C(=C/c2ccc(N(CCC#N)CCC#N)cc2)NC(=O)c2cc([N+](=O)[O-])ccc2Cl)c1
inactive: LXFL 529 > 100 µM | RXF 631 > 100 µM | XF498 > 100 µM

CC(C)(C)c1cc(C(P(=O)(c2ccccc2)c2ccccc2)P(=O)(c2ccccc2)c2ccccc2)cc(C(C)(C)C)c1O
inactive: Hs-578T 2.48 µM | MDA-MB-231 2.76 µM | MDA-MB-435 1.9 µM | MDA-N 1.91 µM | PC-3 2.67 µM | T47D 2.9 µM

COc1ccc(C(=O)c2c(-c3ccccc3NC(=O)C(F)(F)F)[nH]c3ccccc23)cc1
inactive: Hs-578T 18.1 µM | MDA-MB-231 7.28 µM | MDA-MB-435 9.89 µM | MDA-N 15.3 µM | PC-3 5.92 µM | T47D 1.47 µM

Clc1cc(Cl)cc(C2ON=C(c3ccccc3)N2C23CC4CC(CC(C4)C2)C3)c1 (centres undefined)
inactive: Hs-578T > 10 µM | MDA-MB-231 > 10 µM | MDA-MB-435 > 10 µM | MDA-N > 10 µM | PC-3 > 10 µM | T47D > 10 µM

CCOC(=O)/C(=N/Nc1ccc(C)cc1)N1C(=S)N(C)N=C(C)C=C1S
inactive: Hs-578T 25.7 µM | MDA-MB-231 32.7 µM | MDA-MB-435 > 100 µM | T47D > 100 µM

NC(=O)CCC(N=C(N)c1csc(C2OC(CO)C(O)C2O)n1)C(=O)O (centres undefined)
inactive: LXFL 529 > 100 µM | XF498 > 100 µM

O=C(/N=C(/Nc1ccccc1)SCS/C(=N\C(=O)c1ccco1)Nc1ccccc1)c1ccco1
inactive: LXFL 529 > 100 µM | RXF 631 94.4 µM | XF498 25.4 µM
